In US9113629B2, “4-amino-6-(4-substituted-phenyl)-picolinates and 6-amino-2-(4-substituted-phenyl)-pyrimidine-4-carboxylates and their use as herbicides” (DOW AGROSCIENCES LLC, priority 2013, dated 2015):
Like-named read-outs stand apart in the source and are kept apart here.

Key:
[1] = test system: Key Broadleaf Weed and Crop Species; test: Post-emergent Test II herbicidal activity (Table 5); type: in vivo; settings: post-emergence, 336 h, 14 days after application; for pest or weed control at 70 g/ha: application rate 70 g ai/ha; for pest or weed control at 140 g/ha: application rate 140 g ai/ha
How it was run: (§1)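 Foliar application at 187 L/ha to greenhouse-grown seedlings (first or second true leaf); subirrigation thereafter. Visual 0–100% injury at 14 d relative to untreated plants.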

[2] = test system: Key Grass and Sedge Weeds as well as Grass Crops; test: Post-emergent Test II herbicidal activity (Table 6); type: in vivo; settings: post-emergence, 336 h; for pest or weed control at 70 g/ha: 70 g ai/ha; for pest or weed control at 140 g/ha: 140 g ai/ha
How it was run: as §1

[3] = ABUTH: velvetleaf (Abutilon theophrasti), read-out: Visual Growth Reduction (%) 14 Days After Application, ABUTH
[4] = AMARE: redroot pigweed (Amaranthus retroflexus), read-out: Visual Growth Reduction (%) 14 Days After Application, AMARE
[5] = BRSNN: oilseed-rape, canola (Brassica napus), read-out: Visual Growth Reduction (%) 14 Days After Application, BRSNN
[6] = CHEAL: lambsquarters (Chenopodium album), read-out: Visual Growth Reduction (%) 14 Days After Application, CHEAL
[7] = EPHHL: wild poinsettia (Euphorbia heterophylla), read-out: Visual Growth Reduction (%) 14 Days After Application, EPHHL
[8] = HELAN: sunflower (Helianthus annuus), read-out: Visual Growth Reduction (%) 14 Days After Application, HELAN
[9] = VIOTR: wild pansy (Viola tricolor), read-out: Visual Growth Reduction (%) 14 Days After Application, VIOTR
[10] = CYPES: yellow nutsedge (Cyperus esculentus), read-out: Visual Growth Reduction (%) 14 Days After Application, CYPES
[11] = DIGSA: crabgrass (Digitaria sanguinalis), read-out: Visual Growth Reduction (%) 14 Days After Application, DIGSA
[12] = ECHCG: barnyardgrass (Echinochloa crus-galli), read-out: Visual Growth Reduction (%) 14 Days After Application, ECHCG
[13] = ORYSA: rice (Oryza sativa), crop, read-out: Visual Growth Reduction (%) 14 Days After Application, ORYSA
[14] = SETFA: giant foxtail (Setaria faberi), read-out: Visual Growth Reduction (%) 14 Days After Application, SETFA
[15] = SORVU: grain sorghum (Sorghum vulgare), read-out: Visual Growth Reduction (%) 14 Days After Application, SORVU
[16] = TRZSS (wheat, Triticum aestivum), crop, read-out: Visual Growth Reduction (%) 14 Days After Application, TRZSS
[17] = ZEAMX: maize, corn (Zea mays), crop, read-out: Visual Growth Reduction (%) 14 Days After Application, ZEAMX

SMILES	pest or weed control at 70 g/ha [1, 3] [%]	pest or weed control at 140 g/ha [1, 3] [%]	pest or weed control at 70 g/ha [1, 4] [%]	pest or weed control at 140 g/ha [1, 4] [%]	pest or weed control at 70 g/ha [1, 5] [%]	pest or weed control at 140 g/ha [1, 5] [%]	pest or weed control at 70 g/ha [1, 6] [%]	pest or weed control at 140 g/ha [1, 6] [%]	pest or weed control at 70 g/ha [1, 7] [%]	pest or weed control at 140 g/ha [1, 7] [%]	pest or weed control at 70 g/ha [1, 8] [%]	pest or weed control at 140 g/ha [1, 8] [%]	pest or weed control at 70 g/ha [1, 9] [%]	pest or weed control at 140 g/ha [1, 9] [%]	pest or weed control at 70 g/ha [2, 10] [%]	pest or weed control at 140 g/ha [2, 10] [%]	pest or weed control at 70 g/ha [2, 11] [%]	pest or weed control at 140 g/ha [2, 11] [%]	pest or weed control at 70 g/ha [2, 12] [%]	pest or weed control at 140 g/ha [2, 12] [%]	also measured
Nc1cc(-c2ccc(I)cc2)nc(C(=O)O)c1Cl [Compound 4]	95 to 100	95 to 100	85 to 94	85 to 94	95 to 100	95 to 100	95 to 100	95 to 100	95 to 100	95 to 100	75 to 84	85 to 94	0 to 29	0 to 29	45 to 59	95 to 100	60 to 74	75 to 84	75 to 84	85 to 94	pest or weed control at 70 g/ha [2, 13]: 0 to 29%; pest or weed control at 140 g/ha [2, 13]: 0 to 29%; pest or weed control at 70 g/ha [2, 14]: 60 to 74%; pest or weed control at 140 g/ha [2, 14]: 60 to 74%; pest or weed control at 70 g/ha [2, 15]: 75 to 84%; pest or weed control at 140 g/ha [2, 15]: 75 to 84%; pest or weed control at 70 g/ha [2, 16]: 75 to 84%; pest or weed control at 140 g/ha [2, 16]: 75 to 84%; pest or weed control at 70 g/ha [2, 17]: 0 to 29%; pest or weed control at 140 g/ha [2, 17]: 0 to 29%
COC(=O)c1nc(-c2ccc(I)cc2)nc(N)c1OC [Compound 18]	75 to 84	75 to 84	0 to 29	0 to 29	75 to 84	95 to 100	85 to 94	95 to 100	95 to 100	95 to 100	95 to 100	95 to 100	0 to 29	45 to 59	95 to 100	95 to 100	0 to 29	30 to 44	0 to 29	45 to 59	pest or weed control at 70 g/ha [2, 13]: 0 to 29%; pest or weed control at 140 g/ha [2, 13]: 0 to 29%; pest or weed control at 70 g/ha [2, 14]: 0 to 29%; pest or weed control at 140 g/ha [2, 14]: 0 to 29%; pest or weed control at 70 g/ha [2, 15]: 30 to 44%; pest or weed control at 140 g/ha [2, 15]: 0 to 29%; pest or weed control at 70 g/ha [2, 16]: 30 to 44%; pest or weed control at 140 g/ha [2, 16]: 30 to 44%; pest or weed control at 70 g/ha [2, 17]: 95 to 100%; pest or weed control at 140 g/ha [2, 17]: 95 to 100%
